Patent US5597899A, “Tumor necrosis factor muteins” (Hoffmann-La Roche Inc., priority 1993, dated 1997)

What was measured:
human TNFR-p55 [1] = assay: Solid phase radioligand competition binding assay, E. coli lysates, TNFR-p55; details: for Dilution of E. coli Lysate for 50% Inhibition of 125I-TNFα Binding (ID50) TNFR-p55: 10-fold serial dilutions 10^-2 to 10^-7, < = inhibition but below 50% at 1:100, << = no measurable inhibition at 1:100; for ID50 TNFR-p55 / ID50 TNFR-p75: ratio = 1 no receptor selectivity, > 1 TNFR-p55 selectivity, < 1 TNFR-p75 selectivity
Experimental: (§1) After 20 min incubation at room temperature 50 μl of 1M MgCl2, 20 μl of 5 mg/ml DNaseI, 50 μl of 5M NaCl and 50 μl of 10% NP-40 were added and the mixture was further incubated at room temperature for 15 min. 0.5 ml of the lysate clarified by centrifugation at 13'000 rpm for 5 min was subjected to ammonium sulfate precipitation (25%-70% cut). The 70% ammonium sulfat pellet was dissolved in 0.2 ml PBS and analyzed by sodium dodecyl sulfate polyacrylamide gel electrophoresis (SDS-PAGE) to confirm presence and approximate amount of the recombinant proteins.
(§2) TNFα was labelled by the Iodogen method (Pierce Chemical Company) to a specific activity of about 10-30 μCi/μg. The volume was 100 μl/well and each lysate dilution was assayed in duplicate or triplicate. After three hours at room temperature the wells were thoroughly washed with PBS and counted in a γ-counter. The results are given in Table 2 for lysates comprising the muteins indicated therein.

human TNFR-p75 [2] = assay: Solid phase radioligand competition binding assay, E. coli lysates, TNFR-p75; details: 10-fold serial dilutions 10^-2 to 10^-7, < = inhibition but below 50% at 1:100, << = no measurable inhibition at 1:100
Experimental: as §1, with “10 ml suspensions of E. coli cells transformed and induced as described in Examples I and II were centrifuged at 4'000 rpm for 10 min and resuspended in 0.9 ml of lysis buffer (10 mM Tris-HCl pH 8.0, 5 mM EDTA, 2 mM PMSF, 10 mM benzamidine, 200 units/ml aprotinine and 0.1 mg/ml lysozyme). After” for “After”
96 well microtiter plates were coated with recombinant human […] TNFR-p75-hγ3 and TNFR-p55-hγ3 fusion proteins (extracellular portion of the receptor fused to the Fc part of human IgG3) at a concentration of 0.3 μg/ml and 0.1 μg/ml, respectively, in phosphate buffered saline (PBS, 100 μl/well, overnight at 4° C.) [Loetscher, H. et al. J. Biol. Chem. 266, 18324-18329 (1991); Lesslauer, W. et al. Eur. J. Immunol. 21, 2883-2886 (1991)]. After blocking with blocking buffer (50 mM Tris pH 7.4, 140 mM NaCl, 5 mM EDTA, 0.02% NAN3, 1% defatted milk powder) the microtiter plate was washed with PBS and incubated in blocking buffer containing 0.1% defatted milk powder with 10 ng/ml human wild-type ^125 I-TNFα and various dilutions of E. coli lysates ranging from 10^-2 to 10^-7 (10-fold serial dilutions). TNFα was labelled by the Iodogen method (Pierce Chemical Company) to a specific activity of about 10-30 μCi/μg. The volume was 100 μl/well and each lysate dilution was assayed in duplicate or triplicate. After three hours at room temperature the wells were thoroughly washed with PBS and counted in a γ-counter. The results are given in Table 2 for lysates comprising the muteins indicated therein.

human TNFR-p55 [3] = assay: Competitive binding of purified muteins to recombinant human TNFR-p55; details: for Decrease in Binding Affinity with Respect to Wildtype TNFR-p55: IC50 of mutein divided by IC50 of wildtype TNFα; for Mutein Concentration for 50% Inhibition of 125I-TNFα Binding (IC50) TNFR-p55: purified protein, 10 ng/ml 125I-TNFα, > = competition but below 50% at 100 μg/ml, >> = no measurable competition at 100 μg/ml
Experimental: (§3) The cells were disrupted in a French press at a pressure of 20'000 psi or by sonication in a Branson Sonifier (Model 450, 2×2minat maximal output, on ice). […] Proteins were eluted with a linear NaCl gradient (0 to 400 mM in 20 mM Tris pH 9.0) at a flow rate of 1 ml/min. 5 ml fractions were collected and analyzed for the presence of TNFα muteins by SDS-PAGE. Positive fractions were pooled, dialyzed against 20 mM 2-morpholino-ethanesulfonic acid (MES) pH 6.0 and applied to a MonoS column (HR 5/5, LKB-Pharmacia) equilibrated in 20 mM MES pH 6.0. Proteins were eluted with a linear NaCl gradient (0 to 400 mM in 20 mM MES pH 6.0) at a flow rate of 0.5 ml/min. […] After dialysis against PBS the protein concentration was determined by the BCA Protein Assay (Pierce Chemical Company) using wild-type human TNFα as a standard or by absorbance measurements at 280 nm.
as §2, with “concentration” for “lysate dilution”, “γ-counter.” for “γ-counter. The results are given in Table 2 for lysates comprising the muteins indicated therein.”

human TNFR-p75 [4] = assay: Competitive binding of purified muteins to recombinant human TNFR-p75; details: for Decrease in Binding Affinity with Respect to Wildtype TNFR-p75: IC50 of mutein divided by IC50 of wildtype TNFα; for Mutein Concentration for 50% Inhibition of 125I-TNFα Binding (IC50) TNFR-p75: purified protein, 10 ng/ml 125I-TNFα
Experimental: as §3
as §2, with “concentration” for “lysate dilution”, “γ-counter.” for “γ-counter. The results are given in Table 2 for lysates comprising the muteins indicated therein.”

Molecule | Dilution of E. coli Lysate for 50% Inhibition of 125I-TNFα Binding (ID50) TNFR-p55 (human TNFR-p55 [1]) | ID50 TNFR-p55 / ID50 TNFR-p75 (human TNFR-p55 [1]) | Dilution of E. coli Lysate for 50% Inhibition of 125I-TNFα Binding (ID50) TNFR-p75 (human TNFR-p75 [2]) | Decrease in Binding Affinity with Respect to Wildtype TNFR-p55 (human TNFR-p55 [3]) | Mutein Concentration for 50% Inhibition of 125I-TNFα Binding (IC50) TNFR-p55 (human TNFR-p55 [3]) | Decrease in Binding Affinity with Respect to Wildtype TNFR-p75 (human TNFR-p75 [4]) | Mutein Concentration for 50% Inhibition of 125I-TNFα Binding (IC50) TNFR-p75 (human TNFR-p75 [4])
A145F: human TNFα mutein A145F | 240 fold | 0.04 | 6,000 fold | 33 fold | 500 ng/mL | 1.5 fold | 30 ng/mL
D143N-A145R: human TNFα mutein D143N-A145R (Example I) | < 100 fold | < 0.8 | 125 fold | > 2,500 fold | > 100,000 ng/ml | 6.7 fold | 300 ng/mL
D143Y: human TNFα mutein D143Y | < 100 fold | < 0.08 | 1,330 fold | > 6,660 fold | > 100,000 ng/ml | 17.5 fold | 350 ng/mL
A145W: human TNFα mutein A145W | < 100 fold | < 1 | < 100 fold | 250 fold | 10,000 ng/ml | 2.5 fold | 100 ng/mL
K65W: human TNFα mutein K65W | 500 fold | 0.2 | 3,330 fold |  |  |  | 
A145R: human TNFα mutein A145R | < 100 fold | < 0.03 | 3,330 fold | 2,500 fold | 100,000 ng/ml | 0.8 fold | 35 ng/mL
A145K: human TNFα mutein A145K | < 100 fold | < 0.05 | 1,820 fold |  |  |  | 
R31K: human TNFα mutein R31K | 3,330 fold | 1 | 3,330 fold |  |  |  | 
D143N: human TNFα mutein D143N | < 100 fold | < 0.3 | 330 fold | > 2,500 fold | > 100,000 ng/ml | 6.7 fold | 300 ng/mL
I97K: human TNFα mutein I97K | 143 fold | > 1.4 | < 100 fold |  |  |  | 
L29S-R32W-S86T: human TNFα mutein L29S-R32W-S86T (protein) VRSSSRTPSDKPVAHVVANPQAEGQLQWSNRWANALLANGVELRDNQLVVPSEGLYLIYSQVLFKGQGCPSTHVLLTHTISRIAVTYQTKVNLLSAIKSPCQRETPEGAEAKPWYEPIYLGGVFQLEKGDRLSAEINRPDYLDFAESGQVYFGIIAL | 2,500 fold | > 25 | < 100 fold |  |  |  | 
R31N-R32T-N34S: human TNFα mutein R31N-R32T-N34S (protein) VRSSSRTPSDKPVAHVVANPQAEGQLQWLNNTASALLANGVELRDNQLVVPSEGLYLIYSQVLFKGQGCPSTHVLLTHTISRIAVSYQTKVNLLSAIKSPCQRETPEGAEAKPWYEPIYLGGVFQLEKGDRLSAEINRPDYLDFAESGQVYFGIIAL | < 100 fold | 1 | < 100 fold |  |  |  | 
R31N-R32T-S86T: human TNFα mutein R31N-R32T-S86T (protein) VRSSSRTPSDKPVAHVVANPQAEGQLQWLNNTANALLANGVELRDNQLVVPSEGLYLIYSQVLFKGQGCPSTHVLLTHTISRIAVTYQTKVNLLSAIKSPCQRETPEGAEAKPWYEPIYLGGVFQLEKGDRLSAEINRPDYLDFAESGQVYFGIIAL | 500 fold | > 5 | < 100 fold |  |  |  | 
D143V-F144L-A145S: human TNFα mutein D143V-F144L-A145S (protein) VRSSSRTPSDKPVAHVVANPQAEGQLQWLNRRANALLANGVELRDNQLVVPSEGLYLIYSQVLFKGQGCPSTHVLLTHTISRIAVSYQTKVNLLSAIKSPCQRETPEGAEAKPWYEPIYLGGVFQLEKGDRLSAEINRPDYLVLSESGQVYFGIIAL | < 100 fold | < 1 | < 100 fold |  |  |  | 
